The record followed here is ChEMBL document CHEMBL2073838, “Selectivity of the multidrug resistance modulator, LY335979, for P-glycoprotein and effect on cytochrome P-450 activities” (J Pharmacol Exp Ther, 1999).

Data set [1] has as its target ATP-binding cassette sub-family C member 2 (Homo sapiens, UniProt Q92887). The data set can be described thus: TP_TRANSPORTER: inhibition of LTC4 uptake (LTC4: 0.05 uM, MK571: 10 uM) in membrane vesicles from MRP2-expressing MDCK cells. The settings on record: dog. It counts as functional, cell membranes, Membrane vesicle.
Data set [2] addresses ATP-dependent translocase ABCB1 (Homo sapiens, UniProt P08183). The data set can be described thus: TP_TRANSPORTER: cell accumulation in CCRF-CEM and CEM/VLB100 cells. It counts as functional, cell-based.

Sequence of ATP-dependent translocase ABCB1 (P08183 whole entry): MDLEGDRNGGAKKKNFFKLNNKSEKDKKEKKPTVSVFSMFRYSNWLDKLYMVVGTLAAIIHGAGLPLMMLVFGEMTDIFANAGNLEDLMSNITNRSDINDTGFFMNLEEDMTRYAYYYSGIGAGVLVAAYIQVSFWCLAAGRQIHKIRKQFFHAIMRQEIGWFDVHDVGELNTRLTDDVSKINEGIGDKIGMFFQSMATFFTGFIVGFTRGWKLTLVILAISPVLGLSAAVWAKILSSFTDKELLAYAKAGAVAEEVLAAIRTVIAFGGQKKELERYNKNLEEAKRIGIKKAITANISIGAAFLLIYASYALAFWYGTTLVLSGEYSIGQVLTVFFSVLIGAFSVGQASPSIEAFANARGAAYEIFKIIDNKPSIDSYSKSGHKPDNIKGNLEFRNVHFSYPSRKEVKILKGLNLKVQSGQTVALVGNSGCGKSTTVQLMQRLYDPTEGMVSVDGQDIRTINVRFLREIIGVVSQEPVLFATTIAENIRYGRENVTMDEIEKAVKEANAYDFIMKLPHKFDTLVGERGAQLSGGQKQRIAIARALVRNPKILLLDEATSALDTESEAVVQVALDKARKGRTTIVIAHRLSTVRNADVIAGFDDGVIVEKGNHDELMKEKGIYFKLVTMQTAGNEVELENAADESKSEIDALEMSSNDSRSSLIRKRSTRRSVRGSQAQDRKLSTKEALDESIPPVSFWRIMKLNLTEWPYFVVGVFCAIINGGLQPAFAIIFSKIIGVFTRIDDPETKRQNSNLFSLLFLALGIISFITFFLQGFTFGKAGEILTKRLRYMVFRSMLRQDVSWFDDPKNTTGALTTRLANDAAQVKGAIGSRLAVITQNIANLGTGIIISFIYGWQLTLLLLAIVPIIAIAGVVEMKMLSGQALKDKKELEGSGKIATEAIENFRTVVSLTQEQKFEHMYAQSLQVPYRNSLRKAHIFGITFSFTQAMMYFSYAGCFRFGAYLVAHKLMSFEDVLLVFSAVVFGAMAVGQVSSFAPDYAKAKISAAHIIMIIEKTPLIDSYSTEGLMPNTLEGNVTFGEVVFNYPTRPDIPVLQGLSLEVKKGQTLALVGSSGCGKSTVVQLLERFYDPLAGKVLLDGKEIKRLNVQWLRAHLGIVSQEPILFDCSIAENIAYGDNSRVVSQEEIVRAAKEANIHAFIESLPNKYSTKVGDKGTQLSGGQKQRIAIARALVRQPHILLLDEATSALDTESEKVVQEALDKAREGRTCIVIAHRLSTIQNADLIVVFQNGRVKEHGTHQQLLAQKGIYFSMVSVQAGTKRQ
Sequence of ATP-binding cassette sub-family C member 2 (Q92887 whole entry): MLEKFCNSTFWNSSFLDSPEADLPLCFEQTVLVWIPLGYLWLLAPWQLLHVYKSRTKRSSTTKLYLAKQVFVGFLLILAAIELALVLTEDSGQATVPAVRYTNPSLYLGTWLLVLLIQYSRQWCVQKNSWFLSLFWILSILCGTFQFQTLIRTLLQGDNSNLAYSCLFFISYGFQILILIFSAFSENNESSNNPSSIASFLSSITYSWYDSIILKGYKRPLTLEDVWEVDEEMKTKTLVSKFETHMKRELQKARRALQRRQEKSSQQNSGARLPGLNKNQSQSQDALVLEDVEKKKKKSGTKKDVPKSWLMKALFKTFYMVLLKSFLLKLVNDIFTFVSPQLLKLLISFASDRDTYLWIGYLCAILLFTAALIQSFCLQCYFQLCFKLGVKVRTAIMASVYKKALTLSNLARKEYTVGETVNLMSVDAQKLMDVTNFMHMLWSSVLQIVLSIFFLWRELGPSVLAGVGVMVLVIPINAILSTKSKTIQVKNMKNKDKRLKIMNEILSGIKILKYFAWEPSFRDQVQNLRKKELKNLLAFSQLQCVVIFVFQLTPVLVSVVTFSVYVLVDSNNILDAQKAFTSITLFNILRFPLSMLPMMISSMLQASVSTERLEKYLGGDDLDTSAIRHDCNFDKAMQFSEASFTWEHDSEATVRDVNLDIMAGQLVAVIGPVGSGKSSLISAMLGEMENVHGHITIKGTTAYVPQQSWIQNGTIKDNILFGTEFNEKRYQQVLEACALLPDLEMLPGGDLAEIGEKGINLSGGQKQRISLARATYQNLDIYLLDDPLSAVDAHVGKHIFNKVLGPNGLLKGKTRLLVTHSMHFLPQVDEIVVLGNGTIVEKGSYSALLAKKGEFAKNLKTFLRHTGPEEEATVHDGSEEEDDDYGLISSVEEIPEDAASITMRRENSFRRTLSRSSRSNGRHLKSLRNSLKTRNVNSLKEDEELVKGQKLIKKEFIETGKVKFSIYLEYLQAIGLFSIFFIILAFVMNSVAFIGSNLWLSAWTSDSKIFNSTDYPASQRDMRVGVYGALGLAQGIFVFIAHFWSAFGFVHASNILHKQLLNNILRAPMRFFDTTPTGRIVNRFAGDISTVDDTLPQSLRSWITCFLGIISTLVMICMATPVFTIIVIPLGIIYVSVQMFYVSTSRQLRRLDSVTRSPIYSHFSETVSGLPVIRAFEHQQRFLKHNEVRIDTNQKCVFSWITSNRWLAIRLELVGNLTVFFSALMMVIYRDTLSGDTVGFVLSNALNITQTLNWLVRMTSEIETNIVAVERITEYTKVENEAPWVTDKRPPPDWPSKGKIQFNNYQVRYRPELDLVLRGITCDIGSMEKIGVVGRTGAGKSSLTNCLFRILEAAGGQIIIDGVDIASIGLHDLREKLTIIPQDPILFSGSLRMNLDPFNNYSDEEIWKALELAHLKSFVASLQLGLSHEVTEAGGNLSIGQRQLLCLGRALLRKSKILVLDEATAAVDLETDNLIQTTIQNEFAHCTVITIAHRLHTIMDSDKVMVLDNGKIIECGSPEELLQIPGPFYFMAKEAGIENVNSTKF

`CN(C)C(=O)CCSC(SCCC(=O)O)c1cccc(/C=C/c2ccc3ccc(Cl)cc3n2)c1` (stereo not drawn) [MK-571]: in data set [1], the Activity entry is “inhibitor [+]”.
Take `CC[C@]1(O)C[C@@H]2CN(CCc3c([nH]c4ccccc34)[C@@](C(=O)OC)(c3cc4c(cc3OC)N(C)[C@H]3[C@@](O)(C(=O)OC)[C@H](OC(C)=O)[C@]5(CC)C=CCN6CC[C@]43[C@@H]65)C2)C1` [VINBLASTINE]: the Activity entry in data set [2] is “substrate [+]”.
The same measure, in the same setting: next, `Cl.Cl.Cl.O[C@@H](COc1cccc2ncccc12)CN1CCN([C@@H]2c3ccccc3[C@@H]3[C@H](c4ccccc42)C3(F)F)CC1` [ZOSUQUIDAR TRIHYDROCHLORIDE]: “is not a substrate [-]”.
